# Assay results taken from patent publication US8629149B2, “Oxopiperazine derivatives for the treatment of pain and epilepsy” (Zalicus Pharmaceuticals Ltd., priority 2009, dated 2014).
# Legend:
# [1] = tested on: SNL L5/L6 rats; assay: L5/L6 spinal nerve ligation (SNL) Chung pain model, tactile allodynia (von Frey); type: in vivo, rat; conditions: for Rat SNL tactile allodynia, anti-allodynia (statement): compared to baseline and post-SNL
# From the text: The Spinal Nerve Ligation is an animal model representing peripheral nerve injury generating a neuropathic pain syndrome. In this model experimental animals develop the clinical symptoms of tactile allodynia and hyperalgesia. L5/L6 Spinal nerve ligation (SNL) injury was induced using the procedure of Kim and Chung (Kim et al., Pain 50:355-363 (1992)) in male Sprague-Dawley rats (Harlan; Indianapolis, Ind.) weighing 200 to 250 grams.
# Anaesthesia was induced with 2% isofluorane in O2 at 2 L/min and maintained with 0.5% isofluorane in O2. Rats were then shaved and aseptically prepared for surgeries. A 2 cm paraspinal incision was made at the level of L4-S2. L4/L5 was exposed by removing the transverse process above the nerves with a small rongeur. The L5 spinal nerve is the larger of the two visible nerves below the transverse process and lies closest to the spine. The L6 spinal nerve is located beneath the corner of the slope bone. A home-made glass Chung rod was used to hook L5 or L6 and a pre-made slip knot of 4.0 silk suture was placed on the tip of the rod just above the nerve and pulled underneath to allow for the tight ligation. The L5 and L6 spinal nerves were tightly ligated distal to the dorsal root ganglion. The incision was closed, and the animals were allowed to recover for 5 days.
# Sham control rats underwent the same operation and handling as the experimental animals, but without SNL.
# Prior to initiating drug delivery, baseline behavioural testing data is obtained. At selected times after infusion of the Test or Control Article behavioural data can then be collected again.
# The assessment of tactile allodynia consisted of measuring the withdrawal threshold of the paw ipsilateral to the site of nerve injury in response to probing with a series of calibrated von Frey filaments (innocuous stimuli). Animals were acclimated to the suspended wire-mesh cages for 30 min before testing. Each von Frey filament was applied perpendicularly to the plantar surface of the ligated paw of rats for 5 sec. A positive response was indicated by a sharp withdrawal of the paw. For rats, the first testing filament is 4.31. Measurements were taken before and after administration of test articles. […] The protocol was repeated until three changes in behaviour were determined (“up and down” method) (Chaplan et al., J. Neurosci. Methods 53:55-63 (1994)). The 50% paw withdrawal threshold was determined as (10^[Xf+kδ])/10,000, where Xf=the value of the last von Frey filament employed, k=Dixon value for the positive/negative pattern, and δ=the logarithmic difference between stimuli. The cut-off values for rats were no less than 0.2 g and no higher than 15 g (5.18 filament); for mice no less than 0.03 g and no higher than 2.34 g (4.56 filament). A significant drop of the paw withdrawal threshold compared to the pre-treatment baseline is considered tactile allodynia.
# Rat SNL tactile allodynia were tested for Compounds 1-4 and 9-12 at 60 minutes compared to baseline and post-SNL. […] FIG. 1 is a plot of the antiallodynic effects of compound 4 (i.p.) tested in SNL L5/L6 rats using von Frey at three different doses, namely 3, 10 and 30 mpk, compared to vehicle alone. […] Rat SNL tactile allodynia were tested at 1, 2 and 4 hours after drug treatment (Table 6).
# [2] = Rat Early Pharmacokinetic (EPK) study; type: in vivo; conditions: 30 mg/kg PO, 0.5% CMC; for Tmax: male, Sprague-Dawley, blood
# Procedure: Male Sprague-Dawley rats were dosed via oral (PO) gavage in the detailed formulation. Blood samples were collected from the animals at 6 timepoints out to 4 hours post-dose. Pharmacokinetic analysis was performed on the LC-MS/MS measured concentrations for each timepoint of each compound.
# [3] = target: T1, Nav1.7 channels expressed in HEK cells (Homo sapiens, UniProt Q15858); assay: Nav1.7 voltage-clamp electrophysiological assay (enhancement of slow inactivation); type: cell-based; conditions: n 5 cells
# T1 construct: expressed in transfected cells; host or cells: HEK cells
# Procedure: To examine the effects of compounds on enhancement of slow inactivation of Nav1.7 and Nav1.8 channels expressed in HEK cells the culture media was replaced with an extracellular solution containing (in mM): 137 NaCl, 4 KCl, 1.8 CaCl2, 1 MgCl2, 10 HEPES, 10 glucose, pH adjusted to 7.4 with NaOH. The intracellular solution contained (in mM): 130 KCl, 1 MgCl2, 5 EGTA, 10 HEPES, 5 K2ATP, adjusted to pH 7.3 with KOH. Whole-cell recordings, preparation and application of test compounds were performed in a similar manner to the Cav3.2 electrophysiological assays. Voltage protocols were applied to quantify the effects of test compounds to enhance slow inactivation for Nav1.7 and Nav1.8.
# T1 sequence (Q15858 whole entry): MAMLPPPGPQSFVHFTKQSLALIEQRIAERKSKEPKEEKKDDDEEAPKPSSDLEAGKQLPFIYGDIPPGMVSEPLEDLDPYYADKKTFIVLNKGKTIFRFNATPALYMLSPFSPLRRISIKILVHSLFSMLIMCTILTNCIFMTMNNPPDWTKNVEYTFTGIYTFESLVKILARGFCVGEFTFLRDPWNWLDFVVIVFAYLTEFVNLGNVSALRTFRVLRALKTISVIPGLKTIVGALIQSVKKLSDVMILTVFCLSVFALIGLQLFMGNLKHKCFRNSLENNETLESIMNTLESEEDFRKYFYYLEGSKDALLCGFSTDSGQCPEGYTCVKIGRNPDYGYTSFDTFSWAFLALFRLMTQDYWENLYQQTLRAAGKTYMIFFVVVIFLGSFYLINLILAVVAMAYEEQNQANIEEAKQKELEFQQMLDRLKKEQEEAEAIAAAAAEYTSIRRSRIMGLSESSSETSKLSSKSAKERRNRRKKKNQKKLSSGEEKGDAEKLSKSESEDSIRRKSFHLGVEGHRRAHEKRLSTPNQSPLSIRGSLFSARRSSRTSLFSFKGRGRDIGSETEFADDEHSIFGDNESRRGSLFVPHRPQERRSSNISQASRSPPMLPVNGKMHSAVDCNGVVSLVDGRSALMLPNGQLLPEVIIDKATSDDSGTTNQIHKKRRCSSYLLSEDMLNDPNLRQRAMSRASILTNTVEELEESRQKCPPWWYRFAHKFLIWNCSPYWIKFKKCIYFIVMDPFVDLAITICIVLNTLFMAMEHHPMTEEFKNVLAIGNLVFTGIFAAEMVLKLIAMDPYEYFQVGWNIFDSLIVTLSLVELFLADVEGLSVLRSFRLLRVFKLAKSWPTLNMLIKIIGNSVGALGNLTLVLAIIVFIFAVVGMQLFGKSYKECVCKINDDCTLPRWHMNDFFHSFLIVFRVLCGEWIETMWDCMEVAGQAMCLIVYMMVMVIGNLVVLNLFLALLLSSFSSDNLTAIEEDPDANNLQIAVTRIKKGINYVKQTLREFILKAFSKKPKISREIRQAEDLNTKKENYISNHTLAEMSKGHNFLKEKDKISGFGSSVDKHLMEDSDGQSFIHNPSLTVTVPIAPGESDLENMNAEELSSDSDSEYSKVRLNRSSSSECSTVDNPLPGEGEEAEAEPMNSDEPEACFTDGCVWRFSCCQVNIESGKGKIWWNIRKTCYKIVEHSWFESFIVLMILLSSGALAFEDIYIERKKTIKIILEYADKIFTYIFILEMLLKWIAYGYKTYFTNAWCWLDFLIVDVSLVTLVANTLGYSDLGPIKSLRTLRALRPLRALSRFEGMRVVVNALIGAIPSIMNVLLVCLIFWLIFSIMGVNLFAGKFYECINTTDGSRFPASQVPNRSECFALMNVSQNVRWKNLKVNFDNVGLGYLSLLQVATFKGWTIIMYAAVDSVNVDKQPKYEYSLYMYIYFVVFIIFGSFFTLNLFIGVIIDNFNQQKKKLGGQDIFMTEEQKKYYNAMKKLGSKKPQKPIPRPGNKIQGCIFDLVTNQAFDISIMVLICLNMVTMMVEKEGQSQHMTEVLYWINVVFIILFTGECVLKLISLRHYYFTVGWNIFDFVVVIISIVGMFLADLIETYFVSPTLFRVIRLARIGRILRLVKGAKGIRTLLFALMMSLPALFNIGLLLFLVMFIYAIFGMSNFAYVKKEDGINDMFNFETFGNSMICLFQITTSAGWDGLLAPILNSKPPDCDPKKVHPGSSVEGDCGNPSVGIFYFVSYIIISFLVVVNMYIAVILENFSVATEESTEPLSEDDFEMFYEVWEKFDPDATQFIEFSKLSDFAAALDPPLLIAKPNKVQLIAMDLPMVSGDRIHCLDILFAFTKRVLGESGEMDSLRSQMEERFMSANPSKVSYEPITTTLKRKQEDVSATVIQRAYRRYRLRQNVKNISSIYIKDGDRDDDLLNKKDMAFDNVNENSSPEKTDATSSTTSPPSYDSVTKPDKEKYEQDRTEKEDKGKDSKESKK
smiles,measurement,setting,value
"O=C1CN(C(=O)NC(c2ccccc2)c2ccccc2)CCN1 [Compound 1, N-benzhydryl-3-oxopiperazine-1-carboxamide]",Rat SNL Tactile Allodynia (% Antiallodynia),[1]; 1 hour after drug treatment,10%
same,Rat SNL Tactile Allodynia (% Antiallodynia),[1]; 2 hours after drug treatment,19%
same,Rat SNL Tactile Allodynia (% Antiallodynia),[1]; 4 hours after drug treatment,26%
same,"Rat SNL tactile allodynia, anti-allodynia (statement)",[1],significant anti-allodynia
same,Dose Normalized AUC,[2],993 nM·h
same,Dose Normalized Cmax,[2],333 nM
same,Tmax,[2],102 min
"O=C1CN(C(=O)C(c2ccccc2)c2ccccc2)CCN1 [Compound 7, 4-(2,2-diphenylacetyl)piperazin-2-one]",Rat SNL Tactile Allodynia (% Antiallodynia),[1]; 1 hour after drug treatment,10%
same,Rat SNL Tactile Allodynia (% Antiallodynia),[1]; 2 hours after drug treatment,9%
same,Rat SNL Tactile Allodynia (% Antiallodynia),[1]; 4 hours after drug treatment,14%
same,Dose Normalized AUC,[2],1087 nM·h
same,Dose Normalized Cmax,[2],730 nM
same,Tmax,[2],30 min
"O=C1CN(C(=O)C=C(c2ccccc2)c2ccccc2)CCN1 [Compound 8, 4-(3,3-diphenylacryloyl)piperazin-2-one]",Rat SNL Tactile Allodynia (% Antiallodynia),[1]; 1 hour after drug treatment,17%
same,Rat SNL Tactile Allodynia (% Antiallodynia),[1]; 2 hours after drug treatment,24%
same,Rat SNL Tactile Allodynia (% Antiallodynia),[1]; 4 hours after drug treatment,17%
same,Dose Normalized AUC,[2],185 nM·h
same,Dose Normalized Cmax,[2],132 nM
same,Tmax,[2],40.2 min
"O=C1CN(C(=O)CC(c2ccc(F)cc2)c2ccc(F)cc2)CCN1 [Compound 9, 4-(3,3-bis(4-fluorophenyl)propanoyl)piperazin-2-one]",Rat SNL Tactile Allodynia (% Antiallodynia),[1]; 1 hour after drug treatment,7%
same,Rat SNL Tactile Allodynia (% Antiallodynia),[1]; 2 hours after drug treatment,10%
same,Rat SNL Tactile Allodynia (% Antiallodynia),[1]; 4 hours after drug treatment,7%
same,"Rat SNL tactile allodynia, anti-allodynia (statement)",[1],significant anti-allodynia
same,Fraction current remaining,[3]; concentration tested 10 μM,0.93
same,Fraction current remaining,[3]; concentration tested 100 μM,0.86
"O=C1CN(C(=O)C(c2ccc(Cl)cc2)c2ccc(Cl)cc2)CCN1 [Compound 13, 4-(2,2-bis(4-chlorophenyl)acetyl)piperazin-2-one]","Rat SNL tactile allodynia, anti-allodynia (statement)",[1],significant anti-allodynia
"O=C1CN(C(=O)C[S+]([O-])C(c2ccccc2)c2ccccc2)CCN1 (centres unmarked) [Compound 2, 4-(2-(benzhydrylsulfinyl)acetyl)piperazin-2-one]",Dose Normalized AUC,[2],283 nM·h
same,Dose Normalized Cmax,[2],182 nM
same,Tmax,[2],30 min
"CC1(C)C(=O)NCCN1C(=O)CC(c1ccc(F)cc1)c1ccc(F)cc1 [Compound 15, 4-(3,3-bis(4-fluorophenyl)propanoyl)-3,3-dimethylpiperazin-2-one]",Rat SNL Tactile Allodynia (% Antiallodynia),[1]; 1 hour after drug treatment,11%
same,Rat SNL Tactile Allodynia (% Antiallodynia),[1]; 2 hours after drug treatment,8%
same,Rat SNL Tactile Allodynia (% Antiallodynia),[1]; 4 hours after drug treatment,15%
